Data on eight compounds can be found in patent US5356916A, “1,2,4-oxadiazole derivatives having monoamine oxidase B enzyme-inhibitory activity” (Wakamoto Pharmaceutical Co., Ltd., priority 1991, dated 1994).

pIC50: −log10 of the molar value. Like-named read-outs stand apart in the source and are kept apart here.

One test relates to Parkinson's disease. The settings on record: United States and Europe; cited from earlier work.
The target of a further test is T1, MAO-A (Rattus norvegicus, UniProt P21396).
T1 construct: mitochondria prepared from the liver of rats; from tissue; host or cells: rat liver mitochondria
T1 sequence (P21396 1-526): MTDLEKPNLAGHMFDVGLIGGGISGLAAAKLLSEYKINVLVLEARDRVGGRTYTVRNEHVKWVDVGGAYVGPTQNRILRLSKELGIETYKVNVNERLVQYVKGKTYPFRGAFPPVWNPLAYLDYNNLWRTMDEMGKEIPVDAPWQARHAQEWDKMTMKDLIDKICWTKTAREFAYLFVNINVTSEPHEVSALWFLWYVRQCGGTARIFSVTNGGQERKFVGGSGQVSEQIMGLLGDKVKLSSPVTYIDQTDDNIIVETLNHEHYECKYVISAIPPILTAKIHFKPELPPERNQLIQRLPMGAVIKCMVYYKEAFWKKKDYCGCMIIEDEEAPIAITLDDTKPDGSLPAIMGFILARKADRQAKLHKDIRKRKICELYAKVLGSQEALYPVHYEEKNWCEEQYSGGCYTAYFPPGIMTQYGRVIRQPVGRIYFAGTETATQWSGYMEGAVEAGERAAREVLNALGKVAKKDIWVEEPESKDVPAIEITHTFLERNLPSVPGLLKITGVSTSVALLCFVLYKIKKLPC
The experiment in a line: In vitro inhibition of monoamine oxidase A (oxygen electrode, rat liver mitochondria, substrate serotonin). It is filed as biochemical. The protocol:
(§1) The MAO-inhibitory activity of the compounds of the present invention was determined according to an MAO-inhibitory activity determining method using the oxygen electrode disclosed in K. F. Tipton et al., Biochem. J., 1968,108, pp. 95-99.
(§2) A potassium phosphate buffer solution of mitochondria prepared from the liver of rats was preincubated at 37° C. with or without a compound of the present invention and then a substrate was added to the mixture to thus initiate the reaction at that temperature while the dissolved oxygen-consuming reaction due to MAO activity in the reaction solution was monitored by the oxygen electrode. In this respect, the substrates used were serotonin (5-HT) for the MAO-A activity determination and benzylamine (BA) for the MAO-B activity determination. The MAO-inhibitory activity was evaluated in terms of an IC5.sbsb.0 value which is the concentration of a compound tested required for reducing the rate of oxygen-consuming reaction performed in the presence of the compound to 50% of that of the reaction performed in the absence of the compound.

The target in another test is T2, MAO-B (Rattus norvegicus, UniProt P19643).
T2 construct: mitochondria prepared from the liver of rats; from tissue; host or cells: rat liver mitochondria
T2 sequence (P19643 1-520): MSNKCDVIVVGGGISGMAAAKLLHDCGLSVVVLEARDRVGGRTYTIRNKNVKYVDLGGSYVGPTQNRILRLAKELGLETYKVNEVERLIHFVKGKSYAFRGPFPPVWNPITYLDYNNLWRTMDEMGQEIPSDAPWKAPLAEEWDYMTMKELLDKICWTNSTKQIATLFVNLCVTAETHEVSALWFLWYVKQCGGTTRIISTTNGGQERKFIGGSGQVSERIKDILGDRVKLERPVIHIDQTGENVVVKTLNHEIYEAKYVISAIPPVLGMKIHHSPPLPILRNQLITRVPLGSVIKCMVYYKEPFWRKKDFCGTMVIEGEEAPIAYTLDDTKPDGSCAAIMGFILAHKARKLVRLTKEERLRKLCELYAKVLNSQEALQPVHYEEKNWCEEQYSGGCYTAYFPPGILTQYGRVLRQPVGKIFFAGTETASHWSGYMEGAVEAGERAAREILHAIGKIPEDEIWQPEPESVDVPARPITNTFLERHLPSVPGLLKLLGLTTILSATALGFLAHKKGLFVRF
The experiment in a line: In vitro inhibition of monoamine oxidase B (oxygen electrode, rat liver mitochondria, substrate benzylamine). It is filed as biochemical. The settings on record: for MAO-A/MAO-B: ratio of IC50 values MAO-A/MAO-B. The protocol: as §1, §2

Where [1] appears, read: rat liver mitochondria, 37° C., preincubated, substrate serotonin (5-HT), read-out: IC50 MAO-A.
[2] abbreviates: rat liver mitochondria, 37° C., preincubated, substrate benzylamine (BA), read-out: IC50 MAO-B.

Consider `C#CCN(C)C(C)Cc1ccccc1` (racemic) [d,l-Deprenil], for which the “clinical effectiveness in Parkinson's disease (in words)” value with Parkinson's disease is on record as “effectiveness of this compound has clinically been proved”.

On to `CCc1nc(-c2ccc(OCCCc3cccnc3)cc2)no1` [Example 14, 3-[4-[3-(3-pyridyl)propoxy]phenyl]-5-ethyl-1,2,4-oxadiazole], for which the pIC50 is 4.00 at MAO-A (setting [1]) and 4.70 at MAO-B (setting [2]). Further, the MAO-A/MAO-B at MAO-B is reported as 5.

Consider `CCc1nc(-c2ccc(OCCCN3CCCCC3)cc2)no1` [Example 12, 3-[4-(3-piperidinopropoxy)phenyl]5-ethyl-1,2,4-oxadiazole], for which the pIC50 on MAO-A (setting [1]) and at MAO-B (setting [2]) was 4.00 in each case. For the same compound, the MAO-A/MAO-B at MAO-B was 1.

Regarding `Cc1nc(-c2ccc(OCc3cccnc3)cc2)no1` [Example 26, 3-(4-(3-pyridylmethyloxy)phenyl]-5-methyl-1,2,4-oxadiazole], the pIC50 on MAO-A (setting [1]) was 4.00; on MAO-B (setting [2]), 4.52. Also, on MAO-B, the MAO-A/MAO-B turned out to be 3.3.

`CNc1nc(-c2ccc(OCc3ccccc3)cc2)no1` [Example 33, 3-(4-benzyloxyphenyl)-5-methylamino-1,2,4-oxadiazole]: the pIC50 on MAO-A (setting [1]) is 4.00; at MAO-B (setting [2]) it was 5.15. For the same compound, on MAO-B, the MAO-A/MAO-B worked out at 14.

With `Cc1nc(-c2ccc(OCc3ccncc3)cc2)no1` [Example 27, 3-[4-(4-pyridylmethyloxy)phenyl]-5-methyl-1,2,4-oxadiazole], the figures for the pIC50 at MAO-A (setting [1]) and on MAO-B (setting [2]) were 3.80 and 4.60, respectively. The MAO-A/MAO-B on MAO-B is 6.4.

Compound `ClC(Cl)(Cl)c1nc(-c2ccc(OCc3ccccc3)cc2)no1` [Example 20, 3-(4-benzyloxy)phenyl-5-trichloromethyl-1,2,4-oxadiazole] had a pIC50 on MAO-A of 4.00. Further, on MAO-B, the negative-log IC50 (pIC50) was 5.02 and the MAO-A/MAO-B is listed as 11.

For `CCc1nc(-c2ccc(OCCCN(CC)CC)cc2)no1` [Example 8, 3-[4-(3-diethylaminopropoxy)phenyl]-5-ethyl-1,2,4-oxadiazole], the pIC50 was 4.00 on MAO-A (setting [1]) and 4.60 on MAO-B (setting [2]). Further, on MAO-B, the MAO-A/MAO-B came to 4.

The term pIC50 denotes the IC50 on a negative log10 scale, so that one unit is a factor of ten.
